Like-named read-outs stand apart in the source and are kept apart here.
Key:
BTK recombinant protein = BTK recombinant protein (Homo sapiens (Human), UniProt Q06187); assay: Determination of biochemical BTK (Z'-LYTE kinase assay)
Excerpt: Example 2 Determination of Biochemical BTK
1. Reagents and Materials
• BTK recombinant protein: Invitrogen, Cat #PV3363; • Z′-LYTE® kinase test kit-tyrosine 1 peptide: Invitrogen, Cat #PV3190; • 384-well low-flange black flat-bottomed polystyrene NBS microplate, no lid, no sterilization: Corning, Cat #3575; • 96-well polystyrene conical-bottomed MicroWell™ plate, sealed with a lid: Thermo Scientific™ Nunc™, Cat #277143; • Envision multi-mode plate reader: PerkinElmer; • Mixmate® shaker: Eppendorf; • TS-2102 shaking incubator: TENSUC; 2. Methods
Z′-LYTE® biochemical assay employs a fluorescence resonance energy transfer (FRET)-based, coupled-enzyme format and is based on the differential sensitivity of phosphorylated and non-phosphorylated peptides to proteolytic cleavage. Both ends of the short peptide substrate are labeled with two fluorescent groups to form a FRET paired combination. In the primary reaction (the Kinase Reaction), the kinase transfers the γ-phosphate of ATP to a single […] residue on the short peptide substrate. In the secondary reaction (the development reaction), the non-phosphorylated short peptides were recognized and cleaved by a site-specific protease (the development reagent). Phosphorylated short peptides can resist such cleavage. Cleavage of short peptides can disrupt the donor (such as coumarin) and receptor fluorophores (fluorescein) on the short peptides, while the phosphorylated short peptides can maintain FRET. The calculation method of the ratio is as follows, and the ratio of the respective emission signals generated by the donor fluorophores emitted (after excitation at 400 nm) to the receptors is calculated. Emission signal ratio=emitted light by coumarin (445 nm)/emitted light by fluorescein (520 nm). If the FRET short peptide is phosphorylated (such as no kinase inhibitor), the emitted light ratio will remain in a lower level. If the FRET short peptide is non-phosphorylated (such as kinase inhibitor), the emitted light ratio will be in a higher level. In this way, the inhibitory effects of different compound inhibitors on BTK kinase activity would be distinguished.
The experiment were carried out according to the instructions of the Z′-LYTE® kinase test kit-tyrosine 1 peptide. Reagent preparation: 1.33× kinase buffer: 5× kinase buffer was diluted with water to 1.33× kinase buffer; an enzyme solution: the kinase was dissolved in 1.33× kinase buffer with the final working concentration being 3.32 nM; a short peptide solution: a short peptide stock solution (1 mM dissolved in DMSO) was dissolved in 1.33× kinase buffer with the final working concentration being 2 μM; Z′-LYTE Tyr01 phosphorylated short peptide solution, 0.6 μl of stock solution (1 mM dissolved in DMSO) was dissolved in 149.4 μl of 1.33× kinase buffer; an ATP solution: an ATP stock solution (10 mM aqueous solution) was dissolved in 1.33× kinase buffer with the final working concentration being 32 μM; a color-developing solution: color-developing solution B was dissolved in color-developing buffer with the final working concentration being 1× color-developing solution; 4× compound preparation: the compound was diluted in 3-fold gradient concentration to finally obtain 4% DMSO aqueous solution containing different concentrations of the compound, with the final working concentration being 3000, 1000, 333.33, 111.11, 37.04, 12.35, 4.12, 1.37 nM, 8 concentration points in total.
Specific steps of the experiment: In the experiment, there were three control groups, each with 8 replicate wells, which were C1 100% inhibition group (no ATP), C2 0% inhibition group (with ATP), and C3 100% phosphorylation group, respectively. 2.5 μl of serially diluted compound was added to each well of a 384-well plate, with double replicate wells, and 4% DMSO solution was added to wells C1, C2, and C3. […]

[1] = Study on in vivo pharmacokinetics in mice; parameters: species or system mouse; conditions: for concentration at 8 h / concentration at 24 h: male, ICR, mouse
Excerpt: Example 6 Study on In Vivo Pharmacokinetics in Mice
Solutol HS15 was purchased from BASF, Germany, ethanol (anhydrous) was purchased from Nanjing Chemical Reagent Co., Ltd., physiological saline was purchased from Huayu (Wuxi) Pharmaceutical Co., Ltd., dimethyl sulfoxide (DMSO) and sodium carboxymethyl cellulose 800-1200 (CMC-Na) were purchased from Sinopharm Chemical Reagent Co., Ltd.
Preparation of ethanol/Solutol mixed solution (1:1, v/v): taking an appropriate amount of Solutol HS15 in a centrifuge tube and placing in a 37° C. water bath until dissolved, placing on the bench top to room temperature, taking 1 mL of Solutol in a centrifuge tube containing 1 mL of ethanol and mixing well to obtain the mixed solution.
Taking an appropriate amount of stock solution and placing in a blank centrifuge tube, adding an appropriate amount of ethanol/Solutol mixed solution prepared in advance, vortexing, then adding an appropriate amount of physiological saline, and mixing well until a transparent liquid.
3. Administration to Animals and Sample Collection:
Male ICR mice were purchased from Shanghai Lingchang Biotechnology Co., Ltd. 18 mice were randomly divided into intravenous administration group and intragastric administration group. The mice were fasted overnight before administration. The mice were withheld food but allowed to access water freely within 4 hours after administration, and allowed to freely access food and water after 4 hours. After anesthesia with isoflurane, blood was collected from the retroorbital venous plexus and placing in an centrifuge tube containing anticoagulant, and the centrifuge tube was stored in an box containing wet ice until the plasma was centrifuged.
The plasma samples were pre-treated and then analyzed by liquid chromatography-tandem mass spectrometry (LC-MS/MS), the instrument model was API5500. The analytical chromatographic column was Waters XSELECT HSS T3 C18 column (50×2.1 mm, 2.5 μm). In the mobile phases, deionized water containing 0.1% formic acid and 0.1% acetonitrile was used as the aqueous phase and acetonitrile containing 0.1% formic acid was used as the organic phase. The concentrations of the compound in the samples were determined as follows. Firstly, a standard curve was established, and the peak area ratios of the compound 19 to the internal standard in the standard curve were used as indexes. The theoretical concentrations of compound 19 and the peak area ratios of compound 19 to the internal standard were fitted with a quadratic regression equation to obtain the regression equation. The sample concentrations were calculated by measuring the peak area ratio of the compound of the test sample to the internal standard according to the standard curve.

BTK recombinant protein, sequence (Q06187 whole entry): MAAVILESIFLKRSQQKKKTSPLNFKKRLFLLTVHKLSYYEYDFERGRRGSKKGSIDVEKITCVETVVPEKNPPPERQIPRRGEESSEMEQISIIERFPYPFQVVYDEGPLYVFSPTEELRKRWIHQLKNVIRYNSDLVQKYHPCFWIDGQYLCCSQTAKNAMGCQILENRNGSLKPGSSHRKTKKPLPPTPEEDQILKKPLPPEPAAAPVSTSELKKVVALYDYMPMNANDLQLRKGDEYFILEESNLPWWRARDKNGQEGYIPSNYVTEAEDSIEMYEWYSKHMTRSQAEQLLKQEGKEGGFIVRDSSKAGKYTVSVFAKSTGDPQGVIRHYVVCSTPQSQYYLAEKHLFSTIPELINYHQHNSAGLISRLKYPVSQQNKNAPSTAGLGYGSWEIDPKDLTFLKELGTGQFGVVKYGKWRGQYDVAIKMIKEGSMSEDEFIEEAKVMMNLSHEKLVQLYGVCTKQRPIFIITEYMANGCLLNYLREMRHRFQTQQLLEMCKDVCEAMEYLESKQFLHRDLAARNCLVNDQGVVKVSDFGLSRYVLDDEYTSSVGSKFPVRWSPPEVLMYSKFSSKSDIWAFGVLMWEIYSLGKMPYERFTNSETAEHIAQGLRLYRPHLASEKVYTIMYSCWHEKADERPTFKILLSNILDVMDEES

SMILES: C[C@H]1CN(C2COC2)CCN1c1ccc(Nc2cc(-c3ccnc(-n4ccn5c6c(cc5c4=O)CC(C)(C)C6)c3CO)cn(C)c2=O)nc1 [Compound 19]
- IC50 (BTK recombinant protein): 8 nM
- concentration at 8 h ([1]; oral, mice, intragastric, 10 mg/kg, plasma at 8 h, read-out: C8 h): 555 ng/mL
- concentration at 24 h ([1]; oral, mice, intragastric, 10 mg/kg, plasma at 24 h, read-out: C24 h): 8.5 ng/mL
- concentration at 8 h ([1]; plasma, 10 mg/kg, oral administration in mice, 8 h, read-out: plasma concentration at 8 h): 555 ng/mL
- concentration at 24 h ([1]; plasma, 10 mg/kg, oral administration in mice, 24 h, lower limit of quantification 2.4 ng/mL, read-out: plasma concentration at 24 h): 8.5 ng/mL
- T1/2 ([1]; mice, intragastric, 10 mg/kg): 2.7 h
- plasma exposure (AUC0-∞) relative to reference GDC-0853 ([1]; oral administration in mice): about 1.7 times
- plasma concentration at 8 h relative to GDC-0853 ([1]; oral administration in mice, 8 h): about 3.9 folds

Source: US12070457B2, “Substituted pyridines, pyridazines, pyrimidines, and 1,2,3-triazines as bruton's tyrosine kinase inhibitors” (HUTCHISON MEDIPHARMA LIMITED, priority 2020, dated 2024)
